Test results reported in patent US6821442B1, “Method and apparatus for control of aquatic vertebrate and invertebrate invasive species” (priority 2002, dated 2004).
Converted amounts (≈) assume the structure as drawn. Where two headings read alike, the source gives them in different places.

Tests used:
[1] = test system: Asian clam (Corbicula fluminea); experiment: LT50 of Asian clam exposed to supersaturated gas, standard laboratory methods (APHA 1995); type: in vivo
Text: Gas supersaturation (ΔP>0) with CO2, air or combustion off-gas is established and maintained for a time period shown to cause a selected mortality rate within the population of the target species. We have established LT50 values (LT50 is defined as the time to kill 50 per cent of a targeted species) for the Asian clam (Corbicula fluminea) exposed to elevated concentrations of carbon dioxide and a simulated combustion gas mixture ([…]; N2=85.7%; CO2=13.6%; SO2=0.284%). The LT50 values were established using standard laboratory methods (APHA 1995). With carbon dioxide exposure, LT50 was described by the model (R^2=0.86):
LT50 values decreased from a high of 270 min at 260 mm Hg PCO2 to a low of 90 min at 2070 mm Hg gage pressure. This later value represents a 27 fold decrease in LT50 below that established by McMahon et al (1995) at a PCO2 of 760 mm Hg (absolute pressure). Combustion gas requires longer exposure periods given a lower XCO2. The LT50 at a operating pressure of 2070 mm Hg is about 350 min. […] Lower levels of LT50 are anticipated for fish and other aquatic exotics of concern.

zebra mussels [2] = conditions: 25° C., cited from earlier work
zebra mussels [3] = conditions: cited from earlier work
Asian clams = conditions: cited from earlier work

Structure (SMILES): O=C=O [carbon dioxide]
- LT50 ([1]; 260 mm Hg PCO2, Asian clam): 270 min
- fold decrease in LT50 below that of McMahon et al at PCO2 760 mm Hg (absolute pressure) ([1]; 2070 mm Hg gage pressure): 27 fold
- LT50 ([1]; 2070 mm Hg gage pressure, Asian clam): 90 min
- LT50 (zebra mussels [2]; PCO2 75 torr, zebra mussels): 78 h
- mortality (zebra mussels [2]; PCO2 75 torr, zebra mussels): complete mortality
- effect on byssal threads (zebra mussels [2]; PCO2 of 38 torr): detachment of byssal threads and inhibition of byssal thread formation
- LC50 (zebra mussels [3]; 48 h, 18° C.): 196 µg/mL (≈ 4.45 mM)
- LC50 (zebra mussels [3]; 48 h, 22° C.): 290 µg/mL (≈ 6.59 mM)
- LC50 (zebra mussels [3]; 96 h, 18° C.): 74 µg/mL (≈ 1.68 mM)
- LC50 (zebra mussels [3]; 96 h, 22° C.): 81 µg/mL (≈ 1.84 mM)
- exposure period after which sub-lethal narcotizing effects (gaping response) were induced (zebra mussels [3]): 4 h
- concentration causing toxicity (Asian clams): 500 mg/L
- concentration inducing a narcotizing effect (Asian clams): 100 mg/L
